The values below are quoted from earlier work in patent EP0268927A2, “Resin-coated, non-sorptive granular, pesticidal compositions and method for the preparation thereof” (priority 1986, dated 1988).

Molecules are shown by their SMILES.

The test system of this series is rats. As to conditions: technical grade.

As to `CCOP(=S)(OCC)SCSCC` [phorate, 0,0-diethyl-S-(ethylthiomethyl)phosphorodithioate], the “acute oral LD50 value in rats” value was 1.6-3.7 mg technical/kg.
